This passage reports IC50, clearance and inhibition in vivo results from ChEMBL document CHEMBL1140498, “Synthesis of novel anilinoquinolines as c-fms inhibitors” (Bioorg Med Chem Lett, 2007).

Data set [1] has as its target Macrophage colony-stimulating factor 1 receptor (Homo sapiens, UniProt P07333).
The nature of data set [2]: Growth inhibition of MCSF expressing mouse M-NSF60 cells.
Data set [3] relates to NSO. Description: Growth inhibition of MCSF-independent mouse NSO cells.
A short description of data set [4]: Plasma clearance in rat. Format: ADME, organism-based.
Data set [5] deals with Rattus norvegicus. Description: Antiinflammatory activity against carrageenan-induced paw edema in rat assessed as paw size at 40 mg/kg, iv relative to control. The note with it: read-out: Inhibition.
Data set [6] in a line: Plasma clearance in rat at 3 mg/kg, iv. The data set is classed as ADME, organism-based. Set-up: dose 3 mg/kg, route intravenous.

Sequence of Macrophage colony-stimulating factor 1 receptor (P07333 whole entry): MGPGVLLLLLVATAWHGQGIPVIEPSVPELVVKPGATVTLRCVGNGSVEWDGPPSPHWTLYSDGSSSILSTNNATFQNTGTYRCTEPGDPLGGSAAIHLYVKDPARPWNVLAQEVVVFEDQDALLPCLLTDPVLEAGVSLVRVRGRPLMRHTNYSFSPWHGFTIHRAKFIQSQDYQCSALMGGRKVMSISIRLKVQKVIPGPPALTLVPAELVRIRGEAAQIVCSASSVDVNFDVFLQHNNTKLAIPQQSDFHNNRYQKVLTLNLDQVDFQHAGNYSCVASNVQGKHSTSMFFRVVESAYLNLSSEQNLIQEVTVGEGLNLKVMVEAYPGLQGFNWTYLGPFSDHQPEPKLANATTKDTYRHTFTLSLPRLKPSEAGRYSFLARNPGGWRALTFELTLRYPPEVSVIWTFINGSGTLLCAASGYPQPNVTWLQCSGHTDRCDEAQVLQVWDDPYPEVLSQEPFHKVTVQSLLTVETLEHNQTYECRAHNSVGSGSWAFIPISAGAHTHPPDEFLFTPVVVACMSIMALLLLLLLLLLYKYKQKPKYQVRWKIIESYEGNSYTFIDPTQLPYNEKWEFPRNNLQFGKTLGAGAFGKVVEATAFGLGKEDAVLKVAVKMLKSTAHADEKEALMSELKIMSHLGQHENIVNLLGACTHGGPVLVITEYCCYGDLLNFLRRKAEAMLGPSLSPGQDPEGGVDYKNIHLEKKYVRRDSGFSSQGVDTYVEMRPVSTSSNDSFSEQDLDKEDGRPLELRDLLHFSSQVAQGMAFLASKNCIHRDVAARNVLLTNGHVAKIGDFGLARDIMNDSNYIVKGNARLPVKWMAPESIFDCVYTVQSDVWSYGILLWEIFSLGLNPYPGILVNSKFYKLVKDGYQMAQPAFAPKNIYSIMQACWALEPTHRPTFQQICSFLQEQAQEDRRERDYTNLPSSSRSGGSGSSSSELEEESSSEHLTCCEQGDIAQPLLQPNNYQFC

Broadly, the IC50 is the midpoint of a concentration-inhibition curve. Higher therefore signals lower potency. As for `COc1ccc(Nc2c(C(N)=O)cnc3cc(-c4ccncc4)ccc23)cc1F`, the IC50 in data set [1] worked out at 0.04 µM; in data set [2] it was 0.32 µM; in data set [3] it was 32 µM.

As to `Cc1cc(Nc2c(C(N)=O)cnc3cc(-c4ccncc4)ccc23)ccc1Cl`, the IC50 worked out at 0.16 µM in data set [1], 2 µM in data set [2] and 32 µM in data set [3].

In the case of `CN(C)c1ccc(-c2ccc3c(Nc4ccccc4)c(C(N)=O)cnc3c2)cc1`, the IC50 in data set [1] amounted to 0.04 µM; in data set [2] it was 6.3 µM; in data set [3], 32 µM.

Regarding `COc1ccc(Nc2c(C(N)=O)cnc3cc(-c4ccncc4)ccc23)cc1Cl`, the IC50 in data set [1] was 0.032 µM; in data set [2] it was 0.2 µM; in data set [3], > 50 µM.

Turning to `NC(=O)c1cnc2cc(-c3ccc(C(=O)C4CC4)cc3)ccc2c1Nc1ccccc1`, the IC50 in data set [1] was 0.1 µM; in data set [2], 4 µM; in data set [3], 10 µM.

On to `NC(=O)c1cnc2cc(-c3ccc(C(=O)C4CCCC4)cc3)ccc2c1Nc1ccccc1`, for which the IC50 was 0.032 µM in data set [1], > 20 µM in data set [2] and > 20 µM in data set [3].

In the case of `CS(=O)(=O)Cc1cccc(-c2ccc3c(Nc4ccccc4)c(C(N)=O)cnc3c2)c1`, the IC50 is 0.025 µM in data set [1], 5 µM in data set [2] and > 20 µM in data set [3].

`N#Cc1ccc(-c2ccc3c(Nc4ccccc4)c(C(N)=O)cnc3c2)cc1`: the results for the IC50 in data set [1], in data set [2] and in data set [3] were 0.05 µM, 4 µM and 32 µM, respectively.

For orientation: clearance means the volume of plasma or blood freed of the substance per unit of time. Read a low clearance as a low capacity for elimination. Turning to `NC(=O)c1cnc2cc(-c3ccncc3)ccc2c1Nc1ccccc1`, the clearance in data set [4] turned out to be 2.34 L/h/kg. The IC50 was found to be 0.8 µM in data set [2] and 12 µM in data set [3]. Besides, the inhibition in vivo at 40 mg/kg in data set [5] amounted to 95%.

With `COc1ccc(Nc2c(C(N)=O)cnc3cc(-c4ccncc4)ccc23)cc1`, the results for the IC50 in data set [1], in data set [2] and in data set [3] were 0.063 µM, 0.8 µM and 16 µM, respectively.

Turning to `N#Cc1cccc(-c2ccc3c(Nc4ccccc4)c(C(N)=O)cnc3c2)c1`, the results for the IC50 in data set [1], in data set [2] and in data set [3] were 0.32 µM, 8 µM and 10 µM, respectively.

On to `CSc1ccc(Nc2c(C(N)=O)cnc3cc(-c4ccncc4)ccc23)cc1`, for which the IC50 was 0.13 µM in data set [1], 10 µM in data set [2] and > 50 µM in data set [3].

For `CCOc1ccc(Nc2c(C(N)=O)cnc3cc(-c4ccncc4)ccc23)cc1F`, the IC50 was 4 µM in data set [2] and > 16 µM in data set [3].

As for `CC(C)Oc1ccc(Nc2c(C(N)=O)cnc3cc(-c4ccncc4)ccc23)cc1F`, the IC50 in data set [2] amounted to 8 µM; in data set [3], 13 µM.

Consider `CN(C)c1ccc(Nc2c(C(N)=O)cnc3cc(-c4ccncc4)ccc23)cc1`, for which the IC50 stood at 0.063 µM in data set [1], 6.3 µM in data set [2] and 10 µM in data set [3].

With `CC(C)Oc1ccc(Nc2c(C(N)=O)cnc3cc(-c4ccncc4)ccc23)cc1`, the IC50 in data set [1] was 0.63 µM; in data set [2], 40 µM; in data set [3], > 50 µM.

`NC(=O)c1cnc2cc(-c3ccncc3)ccc2c1Nc1cccc2[nH]ncc12`: the values for the IC50 in data set [1], in data set [2] and in data set [3] were 0.16 µM, 1.3 µM and > 32 µM, respectively.

As for `NC(=O)c1cnc2cc(-c3ccccc3)ccc2c1Nc1ccccc1`, the IC50 in data set [2] was determined as 10 µM; in data set [3] it was 32 µM.

`NC(=O)c1cnc2cc(-c3ccncc3)ccc2c1Nc1ccc(F)c(F)c1`: the IC50 was 0.032 µM in data set [1], 2.5 µM in data set [2] and > 32 µM in data set [3].

For `Cc1cc(Nc2c(C(N)=O)cnc3cc(-c4ccncc4)ccc23)ccc1F`, the IC50 in data set [1] is 0.05 µM; in data set [2], 1 µM; in data set [3] it was > 50 µM.

Take `CS(=O)(=O)Cc1ccc(-c2ccc3c(Nc4ccccc4)c(C(N)=O)cnc3c2)cc1`: the values for the IC50 in data set [1], in data set [2] and in data set [3] were 0.05 µM, 1.6 µM and 8 µM, respectively.

Turning to `CCS(=O)(=O)c1ccc(-c2ccc3c(Nc4ccccc4)c(C(N)=O)cnc3c2)cc1`, the IC50 was 0.2 µM in data set [1], 0.8 µM in data set [2] and 8 µM in data set [3].

Turning to `NC(=O)c1cnc2cc(-c3ccc(C(=O)N4CCCCC4)cc3)ccc2c1Nc1ccccc1`, the IC50 was found to be 0.016 µM in data set [1], 0.4 µM in data set [2] and 8 µM in data set [3].

For `NC(=O)c1cnc2cc(-c3ccc(C(=O)N4CCOCC4)cc3)ccc2c1Nc1ccccc1`, the IC50 in data set [1] was determined as 0.08 µM; in data set [2], 0.2 µM; in data set [3], 8 µM.

For `CS(=O)(=O)c1ccc(-c2ccc3c(Nc4ccccc4)c(C(N)=O)cnc3c2)cc1`, the results for the IC50 in data set [1], in data set [2] and in data set [3] were 0.016 µM, 0.1 µM and 20 µM, respectively.

As to `Cc1ccc(Nc2c(C(N)=O)cnc3cc(-c4ccc(S(C)(=O)=O)cc4)ccc23)cc1C`, the IC50 in data set [1] came out at 0.008 µM; in data set [2] it was 0.1 µM; in data set [3], 10 µM. In addition, the clearance in data set [6] was 3.06 L/h/kg.

Regarding `Cc1ccc(Nc2c(C(N)=O)cnc3cc(-c4ccc(S(C)(=O)=O)cc4)ccc23)cc1F`, the IC50 is 0.063 µM in data set [1], 3.2 µM in data set [2] and > 20 µM in data set [3].

For the compound `CS(=O)(=O)c1ccc(-c2ccc3c(Nc4ccc(F)cc4)c(C(N)=O)cnc3c2)cc1`, the IC50 in data set [1] is 0.16 µM; in data set [2], 0.4 µM; in data set [3] it was 10 µM. The clearance in data set [6] came out at 0.27 L/h/kg.

`COc1ccc(Nc2c(C(N)=O)cnc3cc(-c4ccc(S(C)(=O)=O)cc4)ccc23)cc1F`: the IC50 in data set [1] came out at 0.1 µM; in data set [2], 1 µM; in data set [3], 20 µM.

As to `Cc1ccc(-c2ccc3c(Nc4ccccc4)c(C(N)=O)cnc3c2)cc1`, the results for the IC50 in data set [2] and in data set [3] were 32 µM and 25 µM, respectively.

Consider `COc1ccc(-c2ccc3c(Nc4ccccc4)c(C(N)=O)cnc3c2)cc1`, for which the results for the IC50 in data set [1], in data set [2] and in data set [3] were 0.025 µM, 6.3 µM and 8 µM, respectively.

As for `NC(=O)c1cnc2cc(-c3ccc(F)cc3)ccc2c1Nc1ccccc1`, the values for the IC50 in data set [1], in data set [2] and in data set [3] were 0.032 µM, 25 µM and 25 µM, respectively.

Take `NC(=O)c1cnc2cc(-c3ccc(S(N)(=O)=O)cc3)ccc2c1Nc1ccccc1`: the figures for the 50% inhibitory concentration (IC50) in data set [1], in data set [2] and in data set [3] were 0.08 µM, 3.2 µM and 13 µM, respectively.

With `NC(=O)c1cnc2cc(-c3ccncc3)ccc2c1Nc1ccc(F)cc1`, the IC50 is 0.1 µM in data set [1], 0.8 µM in data set [2] and > 40 µM in data set [3].

As to `Cc1ccc(Nc2c(C(N)=O)cnc3cc(-c4ccncc4)ccc23)cc1C`, the IC50 is 0.08 µM in data set [1], 0.1 µM in data set [2] and > 50 µM in data set [3].

For the compound `Cc1ccc(Nc2c(C(N)=O)cnc3cc(-c4ccncc4)ccc23)cc1F`, the results for the IC50 in data set [1], in data set [2] and in data set [3] were 0.08 µM, 5 µM and > 20 µM, respectively.

As to `NC(=O)c1cnc2cc(-c3ccc(Br)cc3)ccc2c1Nc1ccccc1`, the IC50 worked out at 0.016 µM in data set [1], 50 µM in data set [2] and 50 µM in data set [3].

For `NC(=O)c1cnc2cc(-c3ccc(N)cc3)ccc2c1Nc1ccccc1`, the half-inhibitory concentration (IC50) in data set [2] came out at 1.6 µM; in data set [3], 10 µM.

`CS(=O)(=O)c1ccc(-c2ccc3c(Nc4ccc(F)c(F)c4)c(C(N)=O)cnc3c2)cc1`: the figures for the IC50 in data set [1], in data set [2] and in data set [3] were 0.2 µM, 2 µM and > 20 µM, respectively.

On to `COc1ccc(Nc2c(C(N)=O)cnc3cc(-c4ccc(S(C)(=O)=O)cc4)ccc23)cc1Cl`, for which the IC50 in data set [2] came out at 0.1 µM; in data set [3], 13 µM.

With `Cc1ccc(Nc2c(C(N)=O)cnc3cc(-c4ccncc4)ccc23)cc1Cl`, the IC50 in data set [1] is 0.04 µM; in data set [2], 0.16 µM; in data set [3], > 32 µM.

In the case of `NC(=O)c1cnc2cc(-c3ccncc3)ccc2c1Nc1ccc(OC(F)(F)F)c(Cl)c1`, the IC50 in data set [1] is 0.032 µM; in data set [2] it was > 20 µM; in data set [3], > 32 µM.

As for `NC(=O)c1cnc2cc(-c3ccncc3)ccc2c1Nc1ccon1`, the IC50 in data set [1] is 3.2 µM; in data set [2] it was > 50 µM; in data set [3], 40 µM.

Regarding `NC(=O)c1cnc2cc(-c3ccncc3)ccc2c1Nc1n[nH]c2ccccc12`, the values for the IC50 in data set [1], in data set [2] and in data set [3] were 0.32 µM, 0.8 µM and > 50 µM, respectively.

As for `NC(=O)c1cnc2cc(-c3ccc(C(F)(F)F)cc3)ccc2c1Nc1ccccc1`, the IC50 in data set [1] worked out at 0.13 µM; in data set [2], 16 µM; in data set [3], 20 µM.

`CS(=O)(=O)Nc1ccc(-c2ccc3c(Nc4ccccc4)c(C(N)=O)cnc3c2)cc1`: the IC50 amounted to 0.063 µM in data set [1], 2 µM in data set [2] and 10 µM in data set [3].

Consider `CC(=O)Nc1ccc(-c2ccc3c(Nc4ccccc4)c(C(N)=O)cnc3c2)cc1`, for which the IC50 in data set [1] amounted to 0.08 µM; in data set [2] it was 1.3 µM; in data set [3] it was 4 µM.
